The test system of the test is HCV 1b-377-neo replicon cells. Description: HCV replicon assay (HCV 1b-377-neo replicon cells). In kind it is cell-based, Hepatitis C virus genotype 1b. Conditions: read-out: EC50 range against HCV 1b (Range). As to the method:
An HCV Replion assay was utilized in the present disclosure, and was prepared, conducted and validated as described in commonly owned PCT/US2006/022197 and in O'Boyle et. al. Antimicrob Agents Chemother. April 2005;49(4): 1346-53.
HCV 1b-377-neo replicon cells were used to test the currently described compound series as well as cells resistant to compound A due to a Y2065H mutation in NS5A (described in application PCT/US2006/022197). The compounds tested were determined to have more than 10-fold less inhibitory activity on cells resistant to compound A than wild-type cells indicating a related mechanism of action between the two compound series. Thus, the compounds of the present disclosure can be effective to inhibit the function of the HCV NS5A protein and are understood to be as effective in combinations as previously described in application PCT/US2006/022197 and commonly owned WO/04014852. Further, the compounds of the present disclosure can be effective against the HCV 1b genotype. It should also be understood that the compounds of the present disclosure can inhibit multiple genotypes of HCV. […] In one embodiment compounds of the present disclosure are active against the 1a, 1b, 2a, 2b, 3a, 4a, and 5a genotypes.
In general terms: A replicon is a self-replicating genome or part of one, used to study replication in cells.

Read-outs that look alike come from different tables or passages of the source.

The EC50 is the concentration giving half of the maximal effect. On to `COC(=O)N[C@@H](C(=O)N1CCC[C@H]1c1ncc(-c2ccc(-c3ccc(-c4cnc([C@@H]5CCCN5C(=O)[C@H](NC(=O)OC)c5ccccc5)[nH]4)nc3)cc2)[nH]1)c1ccccc1` [Example 147, methyl((1R)-2-((2S)-2-(5-(5-(4-(2-((2S)-1-((2R)-2-((methoxycarbonyl)amino)-2-phenylacetyl)-2-pyrrolidinyl)-1H-imidazol-5-yl)phenyl)-2-pyridinyl)-1H-imidazol-2-yl)-1-pyrrolidinyl)-2-oxo-1-phenylethyl)carbamate], for which, where the note is “Hepatitis C virus”, the EC50 lay in the range of 0.01 to 0.999 nM.

With `COC(=O)NC(C(=O)N1CCC[C@H]1c1ncc(-c2cnc(-c3ccc(-c4[nH]c([C@@H]5CCCN5C(=O)C(NC(=O)OC)c5ccccc5)nc4C(F)(F)F)cc3)nc2)[nH]1)c1ccccc1` (stereo partly drawn) [Example J46, methyl ((1R)-2-((2S)-2-(5-(4-(5-(2-((2S)-1-((2R)-2-((methoxy-carbonyl)amino)-2-phenylacetyl)-2-pyrrolidinyl)-1H-imidazol-5-yl)-2-pyrimi-dinyl)phenyl)-4-(trifluoromethyl)-1H-imida-zol-2-yl)-1-pyrrolidinyl)-2-oxo-1-phenyleth-yl)carbamate], the EC50 (Hepatitis C virus) lay within 0.01 to 0.999 nM. For the compound `C[C@@H](c1ncc(-c2ccc(-c3ncc(-c4cnc([C@@H]5CCCN5C(=O)[C@@H](c5ccccc5)N5CCCCC5)[nH]4)cn3)cc2)[nH]1)N(C)C(=O)[C@@H](c1ccccc1)N1CCCCC1` [Example 152j-6, (2R)-N-methyl-2-phenyl-N-((1S)-1-(4-(4-(5-(2-((2S)-1-((2R)-2-phenyl-2-(1-piperidinyl)acetyl)-2-pyrrolidinyl)-1H-imidazol-5-yl)-2-pyrimidinyl)phenyl)-1H-imidazol-2-yl)ethyl)-2-(1-piperidinyl)acetamide], the concentration for a half-maximal effect (EC50) (Hepatitis C virus) was in the range of 0.01 to 0.999 nM. The same measure, in the same setting: the same measure for `COC(=O)N[C@@H](C(=O)N1CCC[C@H]1c1ncc(-c2ccc(-c3ccc(-c4cnc([C@@H]5CCCN5C(=O)[C@@H]5CCCO5)[nH]4)cc3C)cc2)[nH]1)c1ccccc1` [Example 128, methyl ((1R)-2-((2S)-2-(5-(2′-methyl-4′-(2-((2S)-1-((2S)-tetrahydro-2-furanylcarbonyl)-2-pyrrolidinyl)-1H-imidazol-5-yl)-4-biphenylyl)-1H-imidazol-2-yl)-1-pyrrolidinyl)-2-oxo-1-phenylethyl)carbamate]: 0.01 to 0.999 nM. As to `COC(=O)N[C@@H](C(=O)N1CCC[C@H]1c1ncc(-c2ccc(-c3ccc(-c4cnc([C@@H]5CCCN5C(=O)Cc5cccnc5)[nH]4)cc3C)cc2)[nH]1)c1ccccc1` [Example 127, methyl ((1R)-2-((2S)-2-(5-(2′-methyl-4′-(2-((2S)-1-(3-pyridinylacetyl)-2-pyrrolidinyl)-1H-imidazol-5-yl)-4-biphenylyl)-1H-imidazol-2-yl)-1-pyrrolidinyl)-2-oxo-1-phenylethyl)carbamate], the EC50 (Hepatitis C virus) was in the range of 0.01 to 0.999 nM. Still for that read-out and setting: the value for `O=C([C@H](O)c1ccccc1)N1CCC[C@H]1c1ncc(-c2ccc(-c3ccc(-c4cnc([C@@H]5CCCN5C(=O)[C@H](O)c5ccccc5)[nH]4)cn3)cc2)[nH]1` [Example 133, (1R)-2-((2S)-2-(5-(6-(4-(2-((2S)-1-((2R)-2-hydroxy-2-phenylacetyl)-2-pyrrolidinyl)-1H-imidazol-5-yl)phenyl)-3-pyridinyl)-1H-imidazol-2-yl)-1-pyrrolidinyl)-2-oxo-1-phenylethanol] was 1 to 99 nM; that for `COC(=O)N[C@H](C(=O)N1CCC[C@H]1c1nc(-c2cnc(-c3ccc(-c4cnc([C@@H]5CCCN5C(=O)[C@@H](NC(=O)OC)C(C)C)[nH]4)cc3)nc2)c[nH]1)C(C)C` [Example D74, methyl ((1S)-1-(((2S)-2-(5-(2-(4-(2-((2S)-1-((2S)-2-((methoxy-carbonyl)amino)-3-methyl-butanoyl)-2-pyrroli-dinyl)-1H-imidazol-5-yl)phenyl)-5-pyrimi-dinyl)-1H-imida-zol-2-yl)-1-pyrroli-dinyl)carbon-yl)-2-methylpro-pyl)carba-mate] was 0.01 to 0.999 nM. Still for that read-out and setting: the value for `COC(=O)N[C@@H](C(=O)N1CCC[C@H]1c1ncc(-c2ccc(-c3ncc(-c4cnc([C@@H]5CCCN5C(=O)Cc5cccnc5)[nH]4)cn3)cc2)[nH]1)c1ccccc1` [Example 152j-3, methyl ((1R)-2-oxo-1-phenyl-2-((2S)-2-(5-(4-(5-(2-((2S)-1-(3-pyridinylacetyl)-2-pyrrolidinyl)-1H-imidazol-5-yl)-2-pyrimidinyl)phenyl)-1H-imidazol-2-yl)-1-pyrrolidinyl)ethyl)car-bamate] was 0.01 to 0.999 nM; that for `CN(C)[C@@H](C(=O)N1CCC[C@H]1c1ncc(-c2cnc(-c3ncc(-c4cnc([C@@H]5CCCN5C(=O)[C@@H](c5ccccc5)N(C)C)[nH]4)cn3)nc2)[nH]1)c1ccccc1` [Example 153c-3, (1R,1′R)-2,2′-(2,2′-bipyrimi-dine-5,5′-diylbis(1H-imidazole-5,2-diyl (2S)-2,1-pyrrolidine-diyl))bis(N, N-dimeth-yl-2-oxo-1-phenyl-ethanamine)] was 1000 to 10000 nM. With `COC(=O)N[C@H](C(=O)N1CCC[C@H]1c1ncc(-c2cnc(-c3ccc(-c4cnc([C@@H]5CCCN5C(=O)[C@@H](NC(=O)OC)C(C)C)[nH]4)c(F)c3)nc2)[nH]1)C(C)C` [Example D68, methyl ((1S)-1-(((2S)-2-(5-(2-fluoro-4-(5-(2-((2S)-1-((2S)-2-((methoxy-carbonyl)a-mino)-3-methyl-butanoyl)-2-pyrroli-dinyl)-1H-imida-zol-5-yl)-2-pyrimi-dinyl)phenyl)-1H-imida-zol-2-yl)-1-pyrroli-dinyl)carbo-nyl)-2-methylpro-pyl)carbamate], the EC50 fell in the range of 0.01 to 0.999 nM. `COC(=O)N[C@@H](C(=O)N[C@@H](C)c1ncc(-c2cnc(-c3ccc(-c4cnc([C@@H]5CCCN5C(=O)[C@H](NC(=O)OC)c5ccccc5)[nH]4)cc3)nc2)[nH]1)c1ccccc1` [Example 152j-17, methyl ((1R)-2-((2S)-2-(5-(4-(5-(2-((1S)-1-(((2R)-2-((methoxycarbonyl)a-mino)-2-phenyl-acetyl)amino)eth-yl)-1H-imidazol-5-yl)-2-pyrimidinyl)phenyl)-1H-imidazol-2-yl)-1-pyrrolidinyl)-2-oxo-1-phenylethyl)carba-mate]: the EC50 (Hepatitis C virus) is 0.01 to 0.999 nM. Take `COC(=O)N[C@@H](C(=O)N(C)[C@@H](C)c1ncc(-c2ccc(-c3ncc(-c4cnc([C@@H]5CCCN5C(=O)[C@H](NC(=O)OC)c5ccccc5)[nH]4)cn3)cc2)[nH]1)c1ccccc1` [Example 152j-21, methyl ((1R)-2-((2S)-2-(5-(2-(4-(2-((1S)-1-(((2R)-2-((methoxycarbonyl)a-mino)-2-phenylacetyl)(methyl)amino)ethyl)-1H-imidazol-5-yl)phenyl)-5-pyrimidinyl)-1H-imidazol-2-yl)-1-pyrrolidinyl)-2-oxo-1-phenylethyl)carbamate]: the EC50 (Hepatitis C virus) was in the range of 0.01 to 0.999 nM. Still for that read-out and setting: the value for `COC(=O)N[C@@H](C(=O)N(C)[C@@H](C)c1ncc(-c2ccc(-c3ccc(-c4cnc([C@@H]5CCCN5C(=O)[C@@H](c5ccccc5)N5CCCCC5)[nH]4)cc3)cc2)[nH]1)c1ccccc1` [Example 131.1-2, methyl((1R)-2-(methyl((1S)-1-(5-(4′-(2-((2S)-1-((2R)-2-phenyl-2-(1-piperidinyl)acetyl)-2-pyrrolidinyl)-1H-imidazol-5-yl)-4-biphenylyl)-1H-imidazol-2-yl)ethyl)amino)-2-oxo-1-phenylethyl)carbamate] was 0.01 to 0.999 nM; that for `COC(=O)N[C@@H](C(=O)N1CCC[C@H]1c1ncc(-c2ccc(-c3ccc(-c4cnc([C@@H]5CCCN5C(=O)Cc5cccnc5)[nH]4)cn3)cc2)[nH]1)c1ccccc1` [Example 143, methyl ((1R)-2-oxo-1-phenyl-2-((2S)-2-(5-(4-(5-(2-((2S)-1-(3-pyridinylacetyl)-2-pyrrolidinyl)-1H-imidazol-5-yl)-2-pyridinyl)phenyl)-1H-imidazol-2-yl)-1-pyrrolidinyl)ethyl)carbamate] was 0.01 to 0.999 nM; that for `C[C@@H](c1ncc(-c2ccc(-c3ccc(-c4cnc([C@@H]5CCCN5C(=O)[C@@H](c5ccccc5)N(C)C)[nH]4)cc3)cc2)[nH]1)N(C)C(=O)[C@@H](c1ccccc1)N(C)C` [Example 24-18-5, (2R)-2-(dimethyl-amino)-N-((1S)-1-(5-(4′-(2-((2S)-1-((2R)-2-(dimethyl-amino)-2-phenyl-acetyl)-2-pyrroli-dinyl)-1H-imida-zol-5-yl)-4-biphenyl-yl)-1H-imidazol-2-yl)ethyl)-N-methyl-2-phenyl-acetamide] was 0.01 to 0.999 nM. Same read-out and setting: the same measure for `COC(=O)N[C@@H](C(=O)N(C)[C@@H](C)c1ncc(-c2ccc(-c3ncc(-c4cnc([C@@H]5CCCN5C(=O)[C@@H](c5ccccc5)N5CCCCC5)[nH]4)cn3)cc2)[nH]1)c1ccccc1` [Example 152l-1, methyl ((1R)-2-(meth-yl((1S)-1-(4-(4-(5-(2-((2S)-1-((2R)-2-phenyl-2-(1-piperi-dinyl)acetyl)-2-pyrrolidinyl)-1H-imidazol-5-yl)-2-pyrimi-dinyl)phenyl)-1H-imidazol-2-yl)eth-yl)amino)-2-oxo-1-phenyl-ethyl)carbamate]: 0.01 to 0.999 nM; for `COC(=O)N[C@@H](C(=O)N1CCC[C@H]1c1ncc(-c2cnc(-c3ncc(-c4cnc([C@@H]5CCCN5C(=O)[C@H](NC(=O)OC)c5ccccc5)[nH]4)cn3)nc2)[nH]1)c1ccccc1` [Example 153c-4, dimethyl (2,2′-bipyrimi-dine-5,5′-diylbis(1H-imi-dazole-5,2-diyl (2S)-2,1-pyrrolidine-diyl((1R)-2-oxo-1-phe-nyl-2,1-ethane-diyl)))biscarba-mate]: 1000 to 10000 nM.

The values above are taken from patent US7659270B2, “Hepatitis C virus inhibitors” (Bristol-Myers Squibb Company, priority 2006, dated 2010).
